Assay results reported in ChEMBL document CHEMBL1201862, “PubChem BioAssay data set” (2004).
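Tested at 5 concentrations; 48 h exposure; 96-well plates; endpoints linearly interpolated, else capped at highest concentration. GI50: concentration for 50% inhibition of growth.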 Active and inactive are the calls of the source. Rule as the data show it: active = GI50 up to about 1.1 µM and inactive = higher.

Key:
Experiment in all cases: growth of human tumour cells (NCI), 48 h
SK-MEL-2 = test system: SK-MEL-2
PC-3 = test system: PC-3
NCI-H460 = test system: NCI-H460
UACC-257 = test system: UACC-257
TK-10 = test system: TK-10
COLO 205 = test system: COLO 205
MDA-N = test system: MDA-N
MDA-MB-231 = test system: MDA-MB-231
HL-60 = test system: HL-60
MDA-MB-435 = test system: MDA-MB-435
OVCAR-5 = test system: OVCAR-5
HCT-116 = test system: HCT-116
BT-549 = test system: BT-549
ACHN = test system: ACHN
NCI-H226 = test system: NCI-H226
EKVX = test system: EKVX
SN12C = test system: SN12C
NCI-H23 = test system: NCI-H23
A549 = test system: A549
A498 = test system: A498
IGROV-1 = test system: IGROV-1
SK-MEL-28 = test system: SK-MEL-28
MOLT-4 = test system: MOLT-4
LOX IMVI = test system: LOX IMVI
M14 = test system: M14
DU-145 = test system: DU-145
KM12 = test system: KM12
UO-31 = test system: UO-31
SF-295 = test system: SF-295
MCF7 = test system: MCF7
SNB-75 = test system: SNB-75
HCC 2998 = test system: HCC 2998
SW-620 = test system: SW-620
OVCAR-4 = test system: OVCAR-4
Malme-3M = test system: Malme-3M
SR = test system: SR
786-0 = test system: 786-0
RPMI-8226 = test system: RPMI-8226
CAKI-1 = test system: CAKI-1
Hs-578T = test system: Hs-578T
HCT-15 = test system: HCT-15
K562 = test system: K562
HOP-92 = test system: HOP-92
CCRF-CEM = test system: CCRF-CEM
SK-MEL-5 = test system: SK-MEL-5
SNB-19 = test system: SNB-19
HT-29 = test system: HT-29
RXF 393 = test system: RXF 393
NCI/ADR-RES = test system: NCI/ADR-RES
U-251 = test system: U-251
NCI-H522 = test system: NCI-H522
SF-539 = test system: SF-539
SF-268 = test system: SF-268
OVCAR-8 = test system: OVCAR-8
OVCAR-3 = test system: OVCAR-3
HOP-62 = test system: HOP-62
SK-OV-3 = test system: SK-OV-3
UACC-62 = test system: UACC-62

## C[C@@H](C[C@@H](O)[C@H](O)C(C)(C)O)[C@H]1CC=C2[C@]3(C)[C@H](O)C[C@H]4C(C)(C)[C@H](O)CC[C@]4(C)[C@H]3CC[C@@]21C
SK-MEL-2
  GI50: 14 µM (inactive)
PC-3
  GI50: 14.3 µM (inactive)
NCI-H460
  GI50: 15.8 µM (inactive)
UACC-257
  GI50: 16.1 µM (inactive)
TK-10
  GI50: 18 µM (inactive)
COLO 205
  GI50: 13.7 µM (inactive)
MDA-N
  GI50: 15.6 µM (inactive)
MDA-MB-231
  GI50: 13.8 µM (inactive)
HL-60
  GI50: 14.2 µM (inactive)
MDA-MB-435
  GI50: 16.4 µM (inactive)
OVCAR-5
  GI50: 19.2 µM (inactive)
HCT-116
  GI50: 16.1 µM (inactive)
BT-549
  GI50: 17.1 µM (inactive)
ACHN
  GI50: 14.3 µM (inactive)
NCI-H226
  GI50: 20.7 µM (inactive)
EKVX
  GI50: 12.3 µM (inactive)
SN12C
  GI50: 15.7 µM (inactive)
NCI-H23
  GI50: 17.6 µM (inactive)
A549
  GI50: 12.7 µM (inactive)
A498
  GI50: 15.2 µM (inactive)
IGROV-1
  GI50: 16.3 µM (inactive)
SK-MEL-28
  GI50: 14.4 µM (inactive)
MOLT-4
  GI50: 11.1 µM (inactive)
LOX IMVI
  GI50: 15.8 µM (inactive)
M14
  GI50: 15.1 µM (inactive)
DU-145
  GI50: 16.9 µM (inactive)
KM12
  GI50: 15.7 µM (inactive)
UO-31
  GI50: 15.4 µM (inactive)
SF-295
  GI50: 15 µM (inactive)
MCF7
  GI50: 17.2 µM (inactive)
SNB-75
  GI50: 17.6 µM (inactive)
HCC 2998
  GI50: 17.3 µM (inactive)
SW-620
  GI50: 17.3 µM (inactive)
OVCAR-4
  GI50: 14.4 µM (inactive)
Malme-3M
  GI50: 14.3 µM (inactive)
SR
  GI50: 21.9 µM (inactive)
786-0
  GI50: 15 µM (inactive)
RPMI-8226
  GI50: 13.9 µM (inactive)
CAKI-1
  GI50: 16.4 µM (inactive)
Hs-578T
  GI50: 22.5 µM (inactive)
HCT-15
  GI50: 14.7 µM
K562
  GI50: 15.7 µM (inactive)
HOP-92
  GI50: 13.9 µM (inactive)
CCRF-CEM
  GI50: 18 µM (inactive)
SK-MEL-5
  GI50: 14.2 µM (inactive)
SNB-19
  GI50: 16 µM (inactive)
HT-29
  GI50: 13.4 µM (inactive)
RXF 393
  GI50: 17 µM (inactive)
NCI/ADR-RES
  GI50: 13.8 µM (inactive)
U-251
  GI50: 16.7 µM (inactive)
NCI-H522
  GI50: 14 µM (inactive)
SF-539
  GI50: 18.1 µM (inactive)
SF-268
  GI50: 13.4 µM (inactive)
OVCAR-8
  GI50: 16.1 µM (inactive)
OVCAR-3
  GI50: 13.3 µM (inactive)
HOP-62
  GI50: 15 µM (inactive)

## CN(C)c1ccc(/C=N/N=C2\C(=O)Nc3c(Cl)cc(Cl)cc32)cc1
SK-MEL-2
  GI50: 32.1 µM (inactive)
PC-3
  GI50: 29.5 µM (inactive)
NCI-H460
  GI50: 41 µM (inactive)
UACC-257
  GI50: > 100 µM (inactive)
TK-10
  GI50: 94.8 µM (inactive)
COLO 205
  GI50: 52.6 µM (inactive)
MDA-N
  GI50: 13.5 µM (inactive)
MDA-MB-231
  GI50: 32.5 µM (inactive)
HL-60
  GI50: 28.6 µM (inactive)
MDA-MB-435
  GI50: 22.5 µM (inactive)
OVCAR-5
  GI50: > 100 µM (inactive)
HCT-116
  GI50: 39 µM (inactive)
BT-549
  GI50: 36.6 µM (inactive)
ACHN
  GI50: 97.9 µM (inactive)
NCI-H226
  GI50: > 100 µM (inactive)
EKVX
  GI50: 3.41 µM (inactive)
SK-OV-3
  GI50: > 100 µM (inactive)
SN12C
  GI50: > 100 µM (inactive)
NCI-H23
  GI50: 46.3 µM (inactive)
A549
  GI50: 41.9 µM (inactive)
A498
  GI50: 32.2 µM (inactive)
IGROV-1
  GI50: 24.2 µM (inactive)
SK-MEL-28
  GI50: 47.3 µM (inactive)
MOLT-4
  GI50: 16.4 µM (inactive)
LOX IMVI
  GI50: 25.6 µM (inactive)
M14
  GI50: 45.9 µM (inactive)
KM12
  GI50: 10.1 µM (inactive)
UO-31
  GI50: 22.9 µM (inactive)
SF-295
  GI50: 32.9 µM (inactive)
MCF7
  GI50: 46.2 µM (inactive)
SNB-75
  GI50: 22.8 µM (inactive)
HCC 2998
  GI50: 64 µM (inactive)
SW-620
  GI50: 35.6 µM (inactive)
OVCAR-4
  GI50: > 100 µM (inactive)
Malme-3M
  GI50: 25.2 µM (inactive)
SR
  GI50: 6.46 µM (inactive)
786-0
  GI50: 45.9 µM (inactive)
CAKI-1
  GI50: 55.8 µM (inactive)
Hs-578T
  GI50: 24.7 µM (inactive)
HCT-15
  GI50: 32.4 µM
K562
  GI50: 20.6 µM (inactive)
HOP-92
  GI50: 92.5 µM (inactive)
CCRF-CEM
  GI50: 27.8 µM (inactive)
SK-MEL-5
  GI50: 41.2 µM (inactive)
SNB-19
  GI50: > 100 µM (inactive)
HT-29
  GI50: 26.1 µM (inactive)
UACC-62
  GI50: 42.2 µM (inactive)
RXF 393
  GI50: 59.3 µM (inactive)
NCI/ADR-RES
  GI50: 20.2 µM (inactive)
U-251
  GI50: 79.3 µM (inactive)
SF-539
  GI50: 39.5 µM (inactive)
OVCAR-8
  GI50: 93.1 µM (inactive)
OVCAR-3
  GI50: 36.6 µM (inactive)
HOP-62
  GI50: 39.7 µM (inactive)
